How the values were obtained:
ALOMY [1] = assay: Pre-emergence herbicidal action against ALOMY; format: in vivo, Alopecurus myosuroides; conditions: 80 g/ha, pre-emergence, scored visually after 3 weeks vs untreated controls (100% = plants have died, 0% = like control plants)
Procedure, shortened: (§1)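 Greenhouse pots of sandy loam held seeds covered with soil, onto which the compound was applied before emergence. An aqueous suspension or emulsion of WP or EC was used at 600 to 800 l/ha with 0.2% wetting agent. Percent damage was judged visually at 3 weeks.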

AVEFA [2] = assay: Pre-emergence herbicidal action against AVEFA; format: in vivo, Avena fatua; conditions: for Pre-emergence action against AVEFA in %: 80 g/ha
Procedure, shortened: as §1

VERPE [3] = assay: Post-emergence herbicidal action against VERPE; format: in vivo, Veronica persica; conditions: 20 g/ha
Procedure, shortened: (§2)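 Foliar application at one-leaf stage of formulated test compounds, aqueous spray at 600–800 l/ha with 0.2% wetting agent. Greenhouse, optimal conditions, ~3 weeks; damage scored visually in % relative to untreated plants.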

VIOTR [4] = assay: Pre-emergence herbicidal action against VIOTR; format: in vivo, Viola tricolor
Procedure, shortened: as §1

VERPE [5] = assay: Pre-emergence herbicidal action against VERPE; format: in vivo, Veronica persica; conditions: dosage 80 g/ha
Procedure, shortened: as §1

ECHCG [6] = assay: Pre-emergence herbicidal action against ECHCG; format: in vivo, Echinochloa crus-galli
Procedure, shortened: as §1

MATIN [7] = assay: Post-emergence herbicidal action against MATIN; format: in vivo, Matricaria inodora
Procedure, shortened: as §2

AVEFA [8] = assay: Post-emergence herbicidal action against AVEFA; format: in vivo, Avena fatua; conditions: 20 g/ha, visual assessment about 3 weeks after treatment, 100% = plants have died, 0% = like control plants
Procedure, shortened: as §2

AMARE [9] = assay: Pre-emergence herbicidal action against AMARE; format: in vivo, Amaranthus retroflexus
Procedure, shortened: as §1

ECHCG [10] = assay: Post-emergence herbicidal action against ECHCG; format: in vivo, Echinochloa crus-galli
Procedure, shortened: as §2

SETVI [11] = assay: Pre-emergence herbicidal action against SETVI; format: in vivo, Setaria viridis
Procedure, shortened: as §1

MATIN [12] = assay: Pre-emergence herbicidal action against MATIN; format: in vivo, Matricaria inodora
Procedure, shortened: as §1

VIOTR [13] = assay: Post-emergence herbicidal action against VIOTR; format: in vivo, Viola tricolor
Procedure, shortened: as §2

DIGSA [14] = assay: Pre-emergence herbicidal action against DIGSA; format: in vivo, Digitaria sanguinalis
Procedure, shortened: as §1

ABUTH [15] = assay: Post-emergence herbicidal action against ABUTH; format: in vivo, Abutilon theophrasti; conditions: visual assessment about 3 weeks after treatment vs untreated controls
Procedure, shortened: as §2

PHBPU [16] = assay: Pre-emergence herbicidal action against PHBPU; format: in vivo, Pharbitis purpurea
Procedure, shortened: as §1

ABUTH [17] = assay: Pre-emergence herbicidal action against ABUTH; format: in vivo, Abutilon theophrasti; conditions: for Pre-emergence action against ABUTH (herbicidal activity): 80 g/ha, scored visually after 3 weeks vs untreated controls (100% = plants have died, 0% = like control plants); for Pre-emergence action against ABUTH (herbicidal activity in percent): dosage 20 g/ha, scored visually after 3 weeks vs untreated controls, 100% = plants have died, 0% = like control plants
Procedure, shortened: as §1

POLCO = assay: Pre-emergence herbicidal action against POLCO; format: in vivo, Polygonum convolvulus; conditions: dosage 80 g/ha
Procedure, shortened: as §1

SETVI [18] = assay: Post-emergence herbicidal action against SETVI; format: in vivo, Setaria viridis
Procedure, shortened: as §2

PHBPU [19] = assay: Post-emergence herbicidal action against PHBPU; format: in vivo, Pharbitis purpurea
Procedure, shortened: as §2

AMARE [20] = assay: Post-emergence herbicidal action against AMARE; format: in vivo, Amaranthus retroflexus; conditions: 20 g/ha, visual assessment about 3 weeks after treatment, 100% = plants have died, 0% = like control plants
Procedure, shortened: as §2

ALOMY [21] = assay: Post-emergence herbicidal action against ALOMY; format: in vivo, Alopecurus myosuroides; conditions: visual assessment about 3 weeks after treatment vs untreated controls
Procedure, shortened: as §2

DIGSA [22] = assay: Post-emergence herbicidal action against DIGSA; format: in vivo, Digitaria sanguinalis; conditions: for Post-emergence action against DIGSA in %: 5 g/ha; for Post-emergence action against DIGSA: 20 g/ha
Procedure, shortened: as §2

[23] = 20 g/ha, scored visually after 3 weeks vs untreated controls, 100% = plants have died, 0% = like control plants
[24] = 80 g/ha, scored visually after 3 weeks vs untreated controls (100% = plants have died, 0% = like control plants)

| SMILES | Pre-emergence action against ALOMY (herbicidal activity) (ALOMY [1]) [%] | Pre-emergence action against AVEFA in % (AVEFA [2]) [%] | Post-emergence action against VERPE in % (VERPE [3]) [%] | Pre-emergence action against VIOTR in % (VIOTR [4]; dosage 20 g/ha) [%] | Pre-emergence action against VIOTR in % (VIOTR [4]; dosage 80 g/ha) [%] | Pre-emergence action against VERPE in % (VERPE [5]) [%] | Pre-emergence action against ECHCG in % (ECHCG [6]; 80 g/ha) [%] | Post-emergence action against MATIN in % (MATIN [7]; dosage 20 g/ha) [%] | Post-emergence action at 20 g/ha against AVEFA in % (AVEFA [8]) [%] | Pre-emergence action against AMARE in % (AMARE [9]; [23]) [%] | Pre-emergence action against AMARE in % (AMARE [9]; [24]) [%] | Post-emergence action against ECHCG in % (ECHCG [10]; dosage 20 g/ha) [%] | Pre-emergence action against SETVI in % (SETVI [11]; dosage 80 g/ha) [%] | Pre-emergence action against MATIN in % (MATIN [12]; dosage 20 g/ha) [%] | Pre-emergence action against MATIN in % (MATIN [12]; dosage 80 g/ha) [%] | Post-emergence action against VIOTR in % (VIOTR [13]; 5 g/ha) [%] | Post-emergence action against VIOTR in % (VIOTR [13]; 20 g/ha) [%] | Post-emergence action against ABUTH in % (ABUTH [15]; dosage 20 g/ha) [%] | Pre-emergence action against PHBPU in % (PHBPU [16]; dosage 80 g/ha) [%] | Pre-emergence action against ABUTH (herbicidal activity) (ABUTH [17]) [%] | other results |
| --- | --- | --- | --- | --- | --- | --- | --- | --- | --- | --- | --- | --- | --- | --- | --- | --- | --- | --- | --- | --- | --- |
| CCNC(=O)c1c(C(F)(F)F)ccc(C(=O)Nc2nnnn2CC)c1OC [Example 2-57] | 90 | 90 | 90 | 100 | 100 | 90 | 100 | 90 | 80 | 100 | 100 | 100 | 100 | 90 | 100 | 90 | 100 | 100 | 80 | 100 | Pre-emergence action against ECHCG in % (ECHCG [6]; 20 g/ha): 90%; Post-emergence action against MATIN in % (MATIN [7]; dosage 5 g/ha): 80%; Post-emergence action against ECHCG in % (ECHCG [10]; dosage 5 g/ha): 100%; Pre-emergence action against SETVI in % (SETVI [11]; dosage 20 g/ha): 80%; Pre-emergence action against DIGSA in % (DIGSA [14]; dosage 20 g/ha): 100%; Pre-emergence action against DIGSA in % (DIGSA [14]; dosage 80 g/ha): 100%; Post-emergence action against ABUTH in % (ABUTH [15]; dosage 5 g/ha): 90%; Pre-emergence action against ABUTH (herbicidal activity in percent) (ABUTH [17]): 100%; Pre-emergence action against POLCO in % (POLCO): 90%; Post-emergence action against SETVI in % (SETVI [18]; dosage 5 g/ha): 100%; Post-emergence action against SETVI in % (SETVI [18]; dosage 20 g/ha): 100%; Post-emergence action against PHBPU in % (PHBPU [19]; dosage 5 g/ha): 80%; Post-emergence action against PHBPU in % (PHBPU [19]; dosage 20 g/ha): 90%; Post-emergence action at 20 g/ha against AMARE in % (AMARE [20]): 100%; Post-emergence action against ALOMY in % (ALOMY [21]; dosage 20 g/ha): 90%; Post-emergence action against DIGSA in % (DIGSA [22]): 90%; Post-emergence action against DIGSA (DIGSA [22]): 100% |
| CCNC(=O)c1c(C(F)F)ccc(C(=O)Nc2nnnn2CC)c1Br [Example 2-226] | 90 | 100 | 90 | 100 | 100 | 100 | 100 | 80 | 80 | 100 | 100 | 90 | 100 | 90 | 100 | 90 | 100 | 90 | 100 | 80 | Pre-emergence action against ECHCG in % (ECHCG [6]; 20 g/ha): 100%; Pre-emergence action against SETVI in % (SETVI [11]; dosage 20 g/ha): 80%; Pre-emergence action against ABUTH (herbicidal activity in percent) (ABUTH [17]): 80%; Pre-emergence action against POLCO in % (POLCO): 80%; Post-emergence action against SETVI in % (SETVI [18]; dosage 5 g/ha): 100%; Post-emergence action against SETVI in % (SETVI [18]; dosage 20 g/ha): 100%; Post-emergence action against PHBPU in % (PHBPU [19]; dosage 20 g/ha): 80%; Post-emergence action at 20 g/ha against AMARE in % (AMARE [20]): 100%; Post-emergence action against ALOMY in % (ALOMY [21]; dosage 20 g/ha): 90%; Post-emergence action against DIGSA (DIGSA [22]): 80% |
| CCn1nnnc1NC(=O)c1ccc(C(F)(F)F)c(C(=O)NCC(F)F)c1C1CC1 [Example 2-291] | 80 | 80 | 80 | 100 | 100 | 90 | 90 | 90 | 90 | 100 | 100 | 80 | 100 | 90 | 100 | 80 | 90 | 80 | 90 | 100 | Pre-emergence action against AVEFA (AVEFA [2]; 20 g/ha, scored visually after 3 weeks, 100% = plants have died, 0% = like control plants): 80%; Post-emergence action against MATIN in % (MATIN [7]; dosage 5 g/ha): 80%; Post-emergence action against ECHCG in % (ECHCG [10]; dosage 5 g/ha): 80%; Pre-emergence action against DIGSA in % (DIGSA [14]; dosage 20 g/ha): 100%; Pre-emergence action against DIGSA in % (DIGSA [14]; dosage 80 g/ha): 100%; Post-emergence action against ABUTH in % (ABUTH [15]; dosage 5 g/ha): 80%; Pre-emergence action against PHBPU in % (PHBPU [16]; dosage 20 g/ha): 80%; Pre-emergence action against ABUTH (herbicidal activity in percent) (ABUTH [17]): 100%; Pre-emergence action against POLCO in % (POLCO): 80%; Post-emergence action against SETVI in % (SETVI [18]; dosage 20 g/ha): 90%; Post-emergence action against PHBPU in % (PHBPU [19]; dosage 5 g/ha): 80%; Post-emergence action against PHBPU in % (PHBPU [19]; dosage 20 g/ha): 90%; Post-emergence action at 20 g/ha against AMARE in % (AMARE [20]): 90%; Post-emergence action against ALOMY in % (ALOMY [21]; dosage 5 g/ha): 80%; Post-emergence action against ALOMY in % (ALOMY [21]; dosage 20 g/ha): 80%; Post-emergence action against DIGSA in % (DIGSA [22]): 90%; Post-emergence action against DIGSA (DIGSA [22]): 100% |
